Results taken from PubChem BioAssay (NCI).
Values joined by “and” are separate entries in the source; they are usually repeats but may differ in a detail not shown here. Identical values can stand only once.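 Grown in 96-well plates, cells were treated for 48 hours with each compound at five concentrations. Insufficient inhibition: endpoint recorded as highest concentration tested. GI50 marks 50% less growth. TGI: concentration producing complete growth inhibition.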

Key:
Assay in all cases: DTP human tumour cell line panel, 48 h
MOLT-4 leukemia = system: MOLT-4 leukemia
SK-MEL-2 melanoma = system: SK-MEL-2 melanoma
HCT-116 colon = system: HCT-116 colon
SN12C renal = system: SN12C renal
A549 NSCLC = system: A549 NSCLC
HOP-62 NSCLC = system: HOP-62 NSCLC
TK-10 renal = system: TK-10 renal
COLO 205 colon = system: COLO 205 colon
MALME-3M melanoma = system: MALME-3M melanoma
CAKI-1 renal = system: CAKI-1 renal

SMILES | GI50 (MOLT-4 leukemia) | TGI (MOLT-4 leukemia) | GI50 (SK-MEL-2 melanoma) | TGI (SK-MEL-2 melanoma) | GI50 (HCT-116 colon) | TGI (HCT-116 colon) | GI50 (SN12C renal) | TGI (SN12C renal) | GI50 (A549 NSCLC) | TGI (A549 NSCLC) | GI50 (HOP-62 NSCLC) | TGI (HOP-62 NSCLC) | GI50 (TK-10 renal) | TGI (TK-10 renal) | GI50 (COLO 205 colon) | TGI (COLO 205 colon) | GI50 (MALME-3M melanoma) | TGI (MALME-3M melanoma) | GI50 (CAKI-1 renal) | TGI (CAKI-1 renal)
Cn1ccnc1C(=O)/C=C/c1ccc(CC(=O)Nc2ccc(Cl)cc2)cc1 | 1.74 µM | > 25 µM | > 25 µM | > 25 µM | 1.31 µM | > 25 µM | 3.04 µM | > 25 µM | 11.5 µM | > 25 µM | 2.16 µM | > 25 µM | 12.3 µM | > 25 µM | 9.44 µM | > 25 µM | 14.2 µM | > 25 µM | 13.5 µM | > 25 µM
COc1cc2oc(=O)cc(C)c2cc1[N+](=O)[O-] | – | 60.9 µM | – | 58 µM | – | 32.3 µM | – | 37.2 µM | – | > 100 µM | – | > 100 µM | – | 83.6 µM | – | > 60.6 µM | – | 49.5 µM | – | > 51.5 µM
O=C(/C=C/c1ccco1)c1ccc(Nc2nc(Nc3ccc(F)cc3)nc(Nc3ccc(Cl)cc3)n2)cc1 | > 19.8 µM | > 49.7 µM | > 49.8 µM | > 100 µM | 16.5 µM | > 54.4 µM | 45.6 µM | > 100 µM | 22.3 µM | > 100 µM | > 50 µM | > 87.1 µM | 10.3 µM | > 35.9 µM | 12.1 µM | > 100 µM | 31.9 µM | > 66.2 µM | 19.2 µM | > 54 µM
c1ccc(N=C2c3ccccc3CN2c2ccccc2)cc1 | – | > 100 µM | – | > 100 µM | – | > 100 µM | – | > 100 µM | – | > 100 µM | – | > 100 µM | – | > 100 µM | – | > 100 µM | – | > 100 µM | – | > 100 µM
O=[N+]([O-])c1ccc(N2CCN(Cc3ccccc3)CC2)c2c1no[n+]2[O-] | 0.194 µM | 2.39 µM | 2.22 µM | 4.76 µM | 0.95 µM | 2.38 µM | 1.63 µM | 3.53 µM | 1.5 µM | 3.19 µM | 1.22 µM | 2.77 µM | 1.75 µM | 3.23 µM | 1.48 µM | 3.04 µM | 1.6 µM | 3.3 µM | 1.42 µM | 3.48 µM
CS(=O)(=O)c1ccc(Oc2cc(F)cc(C#N)c2)c2c1[C@H](O)[C@H](F)[C@@H]2F | > 100 µM | > 100 µM | > 100 µM | > 100 µM | > 100 µM | > 100 µM | > 100 µM | > 100 µM | > 100 µM | > 100 µM | > 100 µM | > 100 µM | > 100 µM | > 100 µM | > 100 µM | > 100 µM | > 100 µM | > 100 µM | > 100 µM | > 100 µM
Cc1ccc(Nc2nc(NCCO)c3ccccc3n2)cc1C | 2.86 µM | 11 µM | 11.3 µM | 24 µM | 3.95 µM | 14.5 µM | 10.3 µM | 24.4 µM | 5.4 µM | 22.7 µM | 10.7 µM | 24.1 µM | 11.1 µM | 23.3 µM | 1.81 µM | 3.73 µM | 1.85 µM | 3.77 µM | 4.66 µM | 17.8 µM
Cc1[nH]c(=O)[nH]c(=O)c1N(CCF)CCCl | 60.8 µM and 80.6 µM and 43.1 µM | 254 µM and 393 µM and 563 µM | 239 µM | 447 µM and 832 µM and 808 µM | 243 µM and 491 µM | 662 µM and 1570 µM and 1010 µM | 159 µM and 120 µM and 312 µM | 480 µM and 641 µM and 1020 µM | 335 µM and 455 µM | 990 µM and 1210 µM and 1850 µM | 439 µM | 872 µM and 1100 µM and 1150 µM | – | 1070 µM | 337 µM | 930 µM and 805 µM | 219 µM and 393 µM | 410 µM and 757 µM and 721 µM | 137 µM | 634 µM and 711 µM
COc1cccc(-c2nn(-c3ccccc3)cc2-c2ccnc(NCCNS(=O)(=O)c3ccc(Cl)cc3)c2)c1 | 2.56 µM | 9 µM | 3.84 µM | 26.9 µM | 4.63 µM | > 100 µM | 5.45 µM | > 100 µM | 5.86 µM | > 100 µM | 13.5 µM | > 100 µM | 4.75 µM | > 100 µM | 3.33 µM | 14.7 µM | 3.8 µM | > 100 µM | 5.61 µM | > 100 µM
CN(N=O)C(=O)Nc1c[nH]c(=O)[nH]c1=O | – | > 100 µM | – | > 100 µM | – | > 100 µM | – | > 100 µM | – | > 100 µM | – | > 100 µM | – | > 100 µM | – | > 100 µM | – | > 100 µM | – | > 100 µM
Oc1ccc(C(c2ccccc2)(c2ccccc2)c2ccccc2)cc1 | 17.8 µM | 36.6 µM | 13.6 µM | 27 µM | 12.9 µM | 26.1 µM | 16.9 µM | 31.6 µM | 12.8 µM | 29 µM | 17.6 µM | 31.5 µM | 36.7 µM | 87.4 µM | 15.5 µM | 29.8 µM | 27.2 µM | 68.9 µM | 14 µM | 29.6 µM
O=C1OC(c2ccco2)=N/C1=C\c1ccc(Cl)c(Cl)c1 | – | > 100 µM | – | > 100 µM | – | > 100 µM | – | > 100 µM | – | > 100 µM | – | 94.6 µM | – | > 100 µM | – | > 100 µM | – | > 100 µM | – | > 100 µM
Nc1c(C(=O)Nc2ccccc2)sc2nc3c(cc12)CCCCCC3 | 0.422 µM | > 50.9 µM | 0.857 µM | 8.89 µM | 0.328 µM | 4.85 µM | 1.57 µM | 60.2 µM | 0.467 µM | 20.1 µM | 0.648 µM | 6.97 µM | 0.883 µM | 5.2 µM | 0.307 µM | 1.48 µM | 1.29 µM | 19.4 µM | 0.526 µM | 16 µM
C=C1C(=O)O[C@@H]2C[C@@H]1CC[C@]1(C)O[C@H]1CC[C@@]1(C)O[C@@H]1CC[C@@]2(C)O | 13.5 µM | 36.7 µM | 50.1 µM | > 100 µM | 23.1 µM | 65.9 µM | 22.5 µM | 61.5 µM | > 100 µM | > 100 µM | 75.8 µM | > 100 µM | 39.4 µM | > 100 µM | 16.4 µM | 34.2 µM | 22.3 µM | 71.2 µM | 27.3 µM | 79.9 µM
